Assay results: patent US10835624B2, “Compounds for imaging Tau protein aggregates” (AC IMMUNE S.A., priority 2016, dated 2020)
Marks after values point to notes of the source that are not given here. Blank lines part the entries; values can stand above or below the molecule they belong to.

Tests used:
[1] = target: T1, MAO B (Homo sapiens, UniProt P27338); test: MAO B 18F-fluoro deprenyl competition assay in human HC brain homogenate; format: binding; parameters: Low affinity to MAO B (IC50 in HC homogenate): key: −: poor; ∘: moderate; +: good; ++: very good; +++: excellent
T1 construct: 20 μg of human brain homogenate (without AD pathology); from tissue; host or cells: human brain homogenate without AD pathology (healthy control)
T1 sequence (P27338 1-520): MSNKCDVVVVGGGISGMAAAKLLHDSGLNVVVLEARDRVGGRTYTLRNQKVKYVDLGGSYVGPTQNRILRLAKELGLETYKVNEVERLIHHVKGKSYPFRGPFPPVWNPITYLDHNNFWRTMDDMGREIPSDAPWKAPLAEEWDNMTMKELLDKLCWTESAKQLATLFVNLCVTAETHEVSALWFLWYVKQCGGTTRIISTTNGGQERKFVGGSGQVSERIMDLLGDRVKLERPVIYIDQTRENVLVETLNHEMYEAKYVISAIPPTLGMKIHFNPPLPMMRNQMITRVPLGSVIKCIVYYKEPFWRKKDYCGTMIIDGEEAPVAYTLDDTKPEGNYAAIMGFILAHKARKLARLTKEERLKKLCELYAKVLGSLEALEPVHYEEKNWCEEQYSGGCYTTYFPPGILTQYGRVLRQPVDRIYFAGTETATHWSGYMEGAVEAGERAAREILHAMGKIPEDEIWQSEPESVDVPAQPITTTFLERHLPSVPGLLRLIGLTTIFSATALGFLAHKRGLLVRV
Protocol: The samples were shaken at 110 rpm for 45 min at 37° C. Samples were then filtered through GF/B 96 well filter plates and washed twice with 300 μL assay buffer (PBS containing 0.1% BSA and 2% DMSO). Thereafter, filter plates were sealed and a Fuji Film Imaging Plate (BAS-SR2025) was placed on top. The imaging plate was analyzed after overnight exposition using a Fuji Film BAS-5000. […] IC50 values were calculated by Prism V6 (GraphPad) setting total binding to 100%.

[2] = target: T2, Monoamine oxidase A (MAO A) (Homo sapiens, UniProt P21397); settings: Vermeiren et al. 2015; cited from earlier work
T2 sequence (P21397 1-527): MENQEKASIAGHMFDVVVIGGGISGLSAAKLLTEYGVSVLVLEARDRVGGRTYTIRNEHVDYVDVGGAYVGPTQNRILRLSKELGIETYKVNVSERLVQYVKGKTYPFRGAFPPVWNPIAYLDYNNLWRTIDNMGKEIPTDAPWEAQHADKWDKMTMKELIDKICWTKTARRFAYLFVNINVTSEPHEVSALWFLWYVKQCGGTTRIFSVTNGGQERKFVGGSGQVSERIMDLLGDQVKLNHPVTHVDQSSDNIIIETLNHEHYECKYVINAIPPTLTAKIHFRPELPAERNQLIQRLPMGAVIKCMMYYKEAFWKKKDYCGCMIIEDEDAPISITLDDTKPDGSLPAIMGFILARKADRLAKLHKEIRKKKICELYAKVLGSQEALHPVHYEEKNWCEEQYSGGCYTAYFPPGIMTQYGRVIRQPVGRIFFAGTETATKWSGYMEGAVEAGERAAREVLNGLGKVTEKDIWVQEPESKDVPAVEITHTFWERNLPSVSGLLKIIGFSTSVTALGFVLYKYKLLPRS

[3] = PK studies in healthy mice (PET); format: in vivo, NMRI mice; parameters: Good brain uptake / Fast washout from healthy brain: key: −: poor; ∘: moderate; +: good; ++: very good; +++: excellent; settings: for Low retention in healthy brain / Good brain uptake / Low or minor de-fluorination / Fast washout from healthy brain: grade; for Low retention in healthy brain: healthy mice 60 min after iv injection; for Good brain uptake: healthy mice after iv injection; for Low or minor de-fluorination: bone uptake in healthy mice at 60 min; for Fast washout from healthy brain: healthy mice; for De-fluorination in mice (in words): mouse, in vivo; on Good brain uptake: key: −: poor; ∘: moderate; +: good; ++: very good; +++: excellent; on Low or minor de-fluorination: key: −: poor; ∘: moderate; +: good; ++: very good; +++: excellent; on Low retention in healthy brain: key: −: poor; ∘: moderate; +: good; ++: very good; +++: excellent
Protocol: NMRI mice (weight range 25-35 g) were injected intravenously with the ^18F-labeled compounds. Up to 150 μL of 1×PBS solution with 10%-15% EtOH or dilution medium ([…]) containing the ^18F-labeled compound (2-10 MBq) were injected. Anesthesia with isoflurane was induced before injection of the tracer and maintained during the image acquisition period. PET scans were performed using a SIEMENS INVEON small animal PET/CT scanner (Siemens, Knoxville, Tenn.). PET acquisition was started immediately before the radioactive dose was injected into the animal through the tail vein. Images were generated as dynamic scans for 60 minutes.
The peak uptake in the brain was set to 100% and washout curves were generated to evaluate the clearance of the activity from the normal brain (FIG. 2).

[4] = test system: Tau pathology; test: Human imaging study (dynamic PET); format: in vivo
Protocol: In a clinical trial, subjects with AD or PSP as well as non-demented controls (NDC) underwent dynamic PET imaging for over 3 h following 370 MBq bolus injection of ^18F-3a.

[5] = test system: Tau (AD brain vs mouse brain homogenate); test: Tracer signal in AD brain vs mouse brain homogenate; format: binding, human / mouse; parameters: High signal to noise (AD brain/mouse brain homogenate): key: −: poor; ∘: moderate; +: good; ++: very good; +++: excellent
[6] = test system: Tau in human brain sections (AD, PSP, PiD, HC); test: Autoradiography in human brain slices; format: binding
Protocol: 18 micron thick frozen human brain slices and 6 micron thick human FFPE brain slices were examined via autoradiography. Brain sections were equilibrated for at least 1 h in 1×PBS solution prior to use in the experiment. Each brain section was covered with a solution of the ^18F-labeled tracer (200 Bq/μl, 500 μl) in 1×PBS. For blocking experiments with the corresponding ^19F-compound, an excess of the blocking compound (10 μM) was mixed with the ^18F-compound. The brain sections were allowed to incubate with the tracer solution at room temperature for 1 h, drained afterwards and placed in a slide holder. The slides were then washed sequentially with 1×PBS for 1 min; 70% EtOH in 1×PBS for 2 min; 30% EtOH in 1×PBS for 2 min; and 1×PBS for 1 min. The slides were allowed to air-dry before being placed on Fuji imaging plates […] for overnight exposure. The imaging plates were scanned and the signal was measured using Fuji software to produce an autoradiographic image of the brain section.

[7] = test system: Tau (AD brain homogenate vs HC brain homogenate); test: Tracer signal in AD brain homogenate vs healthy control brain homogenate; format: binding, human; parameters: High signal to noise (AD brain homogenate/HC brain homogenate) / High signal to noise (further homogenates): key to the marks not given beside the values; settings: for Ratio of tracer signal in AD brain homogenates/signal in HC brain homogenates: further homogenates

IC50 [1]: 170 nM
Low retention in healthy brain [3]: −
Good brain uptake [3]: ++
SMILES: [18F]c1ccc(-c2ccc3c(c2)[nH]c2ccncc23)cn1 [^18F-1]
Kd [2]: 1.5 nM

IC50 [1]: > 1000 nM
Low or minor de-fluorination [3]: −
Fast washout from healthy brain [3]: ++
Good brain uptake [3]: ++
De-fluorination in mice (in words) [3]: De-fluorination in mice was found
SMILES: [18F]c1ccc(-c2ccc3c(n2)[nH]c2ccncc23)cn1 [^18F-2]

Brain uptake in human subjects ([4]; 370 MBq bolus injection, PET): good
Washout from non-target brain regions in human subjects ([4]; 370 MBq bolus injection, PET): fast
IC50 [1]: > 1000 nM
Fold higher MAO B IC50 than compound 18F-1 ([1]; HC brain homogenate): > 5 fold
Low affinity to MAO B (IC50 in HC homogenate) ([1]; grade, non-radioactive derivatives): +++
Low or minor de-fluorination [3]: +++
Fast washout from healthy brain [3]: ++
Low retention in healthy brain [3]: ++
Good brain uptake [3]: ++
Fold faster washout from healthy brain than 18F-1 ([3]; mice): 1.6 fold
Fold lower long-term retention in healthy brain than 18F-1 ([3]; mice): 2.7 fold
Fold lower long-term retention in healthy brain than 18F-2 ([3]; mice): 2 fold
De-fluorination in mice (in words) [3]: No de-fluorination
Binding to AD brain (Braak stage 1/3), autoradiography on human brain slices ([6]; grade, in house data): +++^a)
Binding to AD brain (Braak stage 5/6), autoradiography on human brain slices ([6]; grade, in house data): +++^a)
Binding to PSP, autoradiography on human brain slices ([6]; grade, in house data): +++^a)
Binding to PiD, autoradiography on human brain slices ([6]; grade, in house data): +++^a)
SMILES: [18F]c1cc(-c2ccc3c(n2)[nH]c2ccncc23)ccn1 [^18F-3a]
Uptake in temporal, parietal and frontal lobes ([4]; AD subjects): focal asymmetric uptake
Uptake in globus pallidus and substantia nigra ([4]; PSP subjects): focal increased uptake
Uptake in choroid plexus, basal ganglia, striatum, amygdala, meninges or other off-target regions ([4]; non-demented controls (NDC)): no increased uptake
Ratio of tracer signal in AD brain/signal in mouse brain homogenate ([5]; 18F tracers): 9.2^a
Fold higher signal to noise ratio than 18F-1 ([5]; AD brain homogenate vs whole mouse brain homogenate): 4.2 fold
High signal to noise (AD brain/mouse brain homogenate) ([5]; grade): ++
Autoradiography signal in PSP brain sections [6]: strong signal
Autoradiography signal in PiD brain sections [6]: strong signal
Autoradiography signal in healthy control (HC) sections [6]: no specific signal
Autoradiography signal in AD brain sections ([6]; blockable with excess cold compound): strong punctated staining
Fold higher signal to noise ratio than 18F-1 ([7]; AD brain homogenate vs HC brain homogenate): 5.2 fold
Fold higher signal to noise ratio than 18F-1 ([7]; further AD brain homogenates vs HC brain homogenate): 8.2-13.5 fold
Ratio of tracer signal in AD brain homogenates/signal in HC brain homogenates ([7]; first of 3 values): 14.0
Ratio of tracer signal in AD brain homogenates/signal in HC brain homogenates ([7]; second of 3 values): 17.9
Ratio of tracer signal in AD brain homogenates/signal in HC brain homogenates ([7]; third of 3 values): 33.8
High signal to noise (further homogenates) ([7]; grade, 3 different AD brain homogenates): +++
High signal to noise (AD brain homogenate/HC brain homogenate) ([7]; grade, 18F tracers): ++
